Assay results as given in patent publication US20120142763A1, “NUCLEIC ACID DELIVERY COMPOSITIONS AND METHODS OF USE THEREOF” (THE REGENTS OF THE UNIVERSITY OF CALIFORNIA, priority 2009, published 2012).
Like-named read-outs stand apart in the source and are kept apart here.

Experiments:
[1] = Solubility of charge-protected oligonucleotide in salt solution; format: physicochemical

In the case of “SEQ ID NO:23: RNAi against GFP comprising SEQ ID NO:23 having N1-U-SATE nucleotides; 21 mer charge-protected oligonucleotide (CCACUACCUGAGCACCCAGTTTUGGUGAUGGACUCGUGGGUC; contains N1-U-SATE charge-protected nucleotides, positions not given here)”, the “inhibition of expression of GFP (dose response curves)” value (GFP; at 24 hours) is reported as “inhibition of expression of GFP”, the “inhibition of expression of GFP (dose response curves)” value (GFP; at 48 hours) is reported as “inhibition of expression of GFP” and the “solubility in salt solution” value [1] is reported as “soluble in salt solution”.
